Assay results taken from ChEMBL document CHEMBL1782025, “Archazolid A-15-O-β-D-glucopyranoside and iso-archazolid B: potent V-ATPase inhibitory polyketides from the myxobacteria Cystobacter violaceus and Archangium gephyra” (J Nat Prod, 2011).
Blank lines part the entries; values can stand above or below the molecule they belong to.

Legend:
[1] = target: V-type proton ATPase subunit B (Manduca sexta, UniProt P31401); experiment: Inhibition of Manduca sexta V-ATPase V1/Vo holoenzyme activity assessed as inorganic phosphate production pretreated for 5 mins
[2] = tested on: L929; experiment: Antiproliferative activity against mouse L929 cells assessed as growth inhibition after 5 days by MTT assay; format: functional; details: L929, 120 h
[3] = tested on: SK-OV-3; experiment: Antiproliferative activity against human SKOV3 cells after 5 days by MTT assay; format: functional; details: SK-OV-3, 120 h
[4] = tested on: PC-3; experiment: Antiproliferative activity against human PC3 cells after 5 days by MTT assay; format: functional; details: PC-3, 120 h
[5] = tested on: A-431; experiment: Antiproliferative activity against human A431 cells after 5 days by MTT assay; format: functional; details: A-431, 120 h
[6] = tested on: U-937; experiment: Antiproliferative activity against human U937 cells after 5 days by MTT assay; format: functional; details: U-937, 120 h
[7] = Antiproliferative activity against human KB-3-1 cells after 5 days by MTT assay; format: functional; details: KB 3-1, 120 h
[8] = tested on: MCF7; experiment: Antiproliferative activity against human MCF7 cells after 5 days by MTT assay; format: functional; details: MCF7, 120 h

V-type proton ATPase subunit B, sequence (P31401 whole entry): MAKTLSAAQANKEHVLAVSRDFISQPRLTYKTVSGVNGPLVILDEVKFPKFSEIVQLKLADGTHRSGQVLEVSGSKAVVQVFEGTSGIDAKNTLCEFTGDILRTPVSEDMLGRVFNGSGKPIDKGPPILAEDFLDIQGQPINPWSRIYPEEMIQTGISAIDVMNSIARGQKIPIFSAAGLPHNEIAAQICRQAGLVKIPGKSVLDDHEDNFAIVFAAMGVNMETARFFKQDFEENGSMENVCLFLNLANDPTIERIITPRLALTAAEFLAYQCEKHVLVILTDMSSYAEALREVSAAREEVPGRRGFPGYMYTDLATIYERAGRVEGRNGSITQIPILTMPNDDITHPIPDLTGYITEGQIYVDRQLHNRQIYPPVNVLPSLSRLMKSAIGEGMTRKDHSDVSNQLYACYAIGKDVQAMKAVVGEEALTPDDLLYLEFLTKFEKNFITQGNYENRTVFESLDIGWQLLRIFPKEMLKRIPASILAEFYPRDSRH

SMILES: CNC(=O)O[C@@H](CC(C)C)c1nc([C@H]2OC(=O)/C=C/C/C(C)=C/[C@@H](O)[C@@H](C)\C=C(C)/C=C(C)\C=C\[C@@H](O)[C@H](C)[C@H](OC)/C(C)=C/C=C/[C@@H]2C)cs1 [ARCHAZOLID B]
- IC50 [1]: 0.6 nmol/mg
- GI50 [2]: 1.1 nM

SMILES: CNC(=O)O[C@@H](CC(C)C)c1nc([C@H]2OC(=O)C/C=C/C(C)=C/[C@@H](O)[C@@H](C)\C=C(C)/C=C(C)\C=C\[C@@H](O)[C@H](C)[C@H](OC)/C(C)=C/C=C/[C@@H]2C)cs1 [ARCHAZOLID F]
- GI50 [3]: 0.043 nM
- GI50 [4]: 0.053 nM
- GI50 [5]: 0.111 nM
- IC50 [1]: 0.7 nmol/mg
- GI50 [6]: 0.038 nM
- GI50 [2]: 0.11 nM
- GI50 [7]: 0.042 nM
- GI50 [8]: 0.131 nM

SMILES: CNC(=O)O[C@@H](CC(C)C)c1nc([C@H]2OC(=O)/C(C)=C/C/C(C)=C/[C@@H](O)[C@@H](C)\C=C(C)/C=C(C)\C=C\[C@@H](O)[C@H](C)[C@H](OC)/C(C)=C/C=C/[C@@H]2C)cs1 [ARCHAZOLID A]
- IC50 [1]: 0.6 nmol/mg
- GI50 [2]: 0.81 nM

SMILES: CNC(=O)O[C@@H](CC(C)C)c1nc([C@H]2OC(=O)/C(C)=C/C/C(C)=C/[C@@H](O)[C@@H](C)\C=C(C)/C=C(C)\C=C\[C@@H](O[C@@H]3O[C@H](CO)[C@@H](O)[C@H](O)[C@H]3O)[C@H](C)[C@H](OC)/C(C)=C/C=C/[C@@H]2C)cs1 [ARCHAZOLID E]
- GI50 [2]: 510 nM

- IC50 [1]: 210 nmol/mg
SMILES: CNC(=O)O[C@@H](CC(C)C)c1nc([C@H]2OC(=O)/C(C)=C/C/C(C)=C/[C@@H](O[C@@H]3O[C@H](CO)[C@@H](O)[C@H](O)[C@H]3O)[C@@H](C)\C=C(C)/C=C(C)\C=C\[C@@H](O)[C@H](C)[C@H](OC)/C(C)=C/C=C/[C@@H]2C)cs1 [ARCHAZOLID C]
- GI50 [2]: 1600 nM

- IC50 [1]: 1200 nmol/mg
SMILES: CNC(=O)O[C@@H](CC(C)C)c1nc([C@H]2OC(=O)/C(C)=C/C/C(C)=C/[C@@H](O[C@@H]3O[C@H](CO)[C@@H](O)[C@H](O)[C@H]3O)[C@@H](C)\C=C(CO)/C=C(C)\C=C\[C@@H](O)[C@H](C)[C@H](OC)/C(C)=C/C=C/[C@@H]2C)cs1 [ARCHAZOLID D]
- GI50 [2]: 330 nM
